Measurements reported in patent publication US3962316A, “Carbamate” (priority 1972, dated 1976).

Tests used:
Format in all cases: in vivo
[1] = tested on: houseflies (Musca domestica); conditions: after 4 hours
Excerpt: 1 mm^3 of an acetonic solution of the active ingredients is applied to the ventral abdomen of houseflies (Musca domestica) under slight CO2 narcosis.

[2] = tested on: oriental cockroaches (Blatta orientalis); assay: Contact with treated inner surfaces of 1 liter glass beakers, adult oriental cockroaches
Method: Adult oriental cockroaches (Blatta orientalis) are placed in 1 liter glass beakers whose inner surfaces have been treated with acetonic solutions of the active ingredients. The action is determined after 48 hours.

[3] = tested on: caterpillars of the cabbage moth (Plutella maculipennis); assay: Contact action and effect of ingested food on caterpillars of the cabbage moth (dipped cabbage leaves); conditions: for Mortality (in words): 0.1% by weight of ingredient in aqueous emulsion
Excerpt: Contact action and effect of ingested food on caterpillars of the cabbage moth (Plutella maculipennis). Young cabbage leaves are dipped for 3 seconds into aqueous emulsions of the active ingredients. After they have dried they are put into Petri dishes and caterpillars of the cabbage moth are placed on them.

## CNC(=O)Oc1ccccc1OC(CCl)OC (stereo not drawn) [Active ingredient 1, o-(α-methoxy-β-chloro)-ethoxyphenyl-N-methylcarbamate]
[1]
  LD50: 0.41 γ/fly
[2]; 48 h
  mortality at 0.05 mg: 100%
[3]; Plutella
  mortality at 0.05 %: 100%

## CNC(=O)Oc1ccccc1OC(C)C [III]
[1]
  LD50: 1.5 γ/fly
[3]
  Mortality (in words): ineffective

## CNC(=O)Oc1cccc(C)c1 [II]
[1]; 10.0 γ/fly
  Effect on flies (LD50 column, in words): ineffective
[2]; 0.5 mg/breaker, after 48 hours
  mortality at 0.5 mg: 100%
[3]
  Mortality (in words): ineffective

## CNC(=O)Oc1cccc2ccccc12 [I]
[2]; 48 h
  mortality at 0.2 mg: 100%
[3]; Plutella
  mortality at 0.1 %: 100%

## CCOC(CCl)Oc1ccccc1OC(=O)NC (stereo not drawn) [compound 6]
[3]; Plutella
  mortality at 0.02 %: 100%

## o-(α-2-chloroethoxy)-ethoxyphenyl-N-methylcarbamate [Example 2]
[1]
  LD50: 0.3 γ/fly
